Columns and labels:
[1] = test system: C57BL6/J mice; assay: High fat diet induced body weight gain, food and water intake in mice; assay type: in vivo; details: WT C57BL6 mice on HFD, 0.2 mM in drinking water
Protocol: CD and HFD were purchased from Purina LabDiet (Framingham, Mass.), and Research Diets (New Brunswick, N.J.), respectively. PGT global knockout (KO) mice were fed with HFD at 5-6 weeks of age. Simultaneously, WT-CD, WT-HFD, and PGTKO-HFD mice were treated with vehicle (0.4% DMSO+0.4% cremophore) or 0.2 mM Compound 146 from Table 1. To prepare Compound 146 solution, Compound 146 was dissolved in 100% DMSO at a concentration of 50 mM. Two mL of either DMSO or 50 mM Compound 146 were transferred into 500 mL drinking water; 2 mL cremophore were added into the mixture. The mixture was homogenous. Mice were housed individually and fed with CD or HFD, and water (with or without Compound 146) ad libitum. Food and water intakes and body weight were recorded every other day.

[2] = test system: C57BL6/J mice; assay: Glucose tolerance test in HFD-fed mice; assay type: in vivo; details: mice on HFD, 0.2 mM in drinking water for 67 days; glucose 2 g/kg i.p. after 12 h fast
Protocol: Glucose intolerance is often associated with obesity and HFD causes glucose intolerance. Mice were fasted for 12 hours. Glucose was injected intraperitoneally (20% glucose in saline, 2 g/kg body weight), and plasma glucose levels were measured at various time points by tail cut.

[3] = test system: Sprague-Dawley rats; assay: Tolerability with twice daily injections in the naive rodent; assay type: in vivo; details: 7 days
Protocol: In the first arm of the project, the tolerability of compounds was assessed with twice daily (b.i.d) injections in the naive rodent. Following one week of acclimatization to the UNM housing environments, rats at this time weighing approximately 200-225 g were randomly assigned to either receive a 50 mg/kg injection b.i.d. of Compound 146 (n=4) or an equivalent weight-based volume of vehicle (Cremophor-NMP) b.i.d. (n=4). Rats received test article or saline for a total of 7 consecutive days. Blood draws were conducted immediately before the 2nd day of injections, before the 4th day, before the 6th day, and at sacrifice. Body weights were obtained at the same times as the blood draws. On the 7th day, blood from both cohorts was collected via cardiac puncture while under anesthesia. Lungs, heart, liver and kidney were collected and snap frozen in liquid nitrogen for post-mortem bioassays.

[4] = test system: Sprague-Dawley rats; assay: Rat monocrotaline (MCT) model of pulmonary arterial hypertension; assay type: in vivo; details: for Deaths/Total N: 21 days
Protocol: Monocrotaline (MCT) (Sigma-Aldrich) was formulated by standardized procedures, by first dissolving in an acidic solution (HCl), diluting with distilled H2O, then raising the pH to physiological levels (7.35-7.45) with NaOH. MCT (60 mg/kg) or a volume-matched saline solution was injected intraperitoneally once at the beginning of the study. Body weights were collected on day 0, 5, 7, 11, 14, 18, and 21.
MCT and saline-injected rats (Day 1) were equally and randomly assigned to receive either vehicle (Cremophor-NMP), low dose Compound 146 or high dose Compound 146 via subcutaneous injections (Days 1-21). Injections were administered subcutaneously at 12 hour intervals throughout the study (actual range was 10-14 h).
After 21 days of twice daily subq injections of either vehicle or two concentrations of Compound 146, rats were anesthetized (1.5-2.5% isoflurane; […]), shaved and positioned in dorsal recumbence. Anesthesia was maintained at an appropriate depth, with a target heart rate of ˜350 bpm to ensure minimal cardio-depressant effects during collection of RVSP.
Upon absent deep pain reflex, a thoracotomy was performed to reveal the right ventricle and a fluid-filled catheter was inserted beyond the right ventricular free wall to permit recording of right ventricular hemodynamics (ADI Instruments). A digital trace of 10-30 seconds was obtained from which to derive right ventricular diastolic, mean, and systolic pressures, along with heart rate and related hemodynamic measures. Blood was then drawn via cardiac puncture and centrifuged to obtain EDTA plasma. Hearts were removed and the right ventricle dissected free from the septal wall. Each piece was weighed and reported as RV/LV+S. Tissues (plasma, heart, and lung) were excised and frozen in liquid nitrogen for later biochemical analysis. Additionally, kidneys and liver were snap frozen and stored for subsequent analysis.
Animals were examined twice per day (morning and evening) on each day of the study. Examinations focused on (1) identifying dead, weak, or moribund animals, and (2) documenting the onset and progression of any abnormal clinical signs, especially dermal lesions. Animals found dead were necropsied as soon as possible; for those subjects RV/LVS weight ratios were obtained, but no other parameters were collected.
All data were analyzed by a one-way ANOVA with Newman-Keuls post-hoc multiple comparison test. Probability values less than 0.05 were accepted as significant. Normality of distribution was assumed but for all data sets. All data were analyzed with GraphPad Prism v5.02.

[5] = target: T1, rat PGT (Rattus norvegicus, UniProt Q00910); details: cited from earlier work
T1 construct: expressed in transfected cells

With `O=C(NCCOCCOCCNc1nc(Nc2ccc(C(=O)NCc3ccc(F)cc3)cc2)nc(Nc2ccc(O)c(C(=O)O)c2)n1)c1ccccc1` [Compound 146] the “HFD induced body weight gain” value [1] was “blunted HFD induced weight gain”, the “HFD induced glucose intolerance (glucose tolerance test)” value [2] was “improved HFD induced glucose intolerance” and the “cutaneous lesion diameter close to injection sites” value ([3]; 2 rats of the 50 mg/kg b.i.d. group that did not gain weight) was 1.5-2.0 cm. The “body weight growth (tolerability)” value ([3]; naive rats, 50 mg/kg b.i.d. injection in NMP and Cremophor) was “heterogeneous failure to thrive”, the “RV pressures, MCT+Vehicle versus MCT+Compound 146 by ANOVA” value ([4]; 15 or 50 mg/kg b.i.d.) was “not statistically different” and the “RV pulse pressure, MCT+Vehicle versus MCT+Compound 146 by ANOVA” value ([4]; 15 or 50 mg/kg b.i.d.) was “statistically different”. For the same compound, the “Net RV weight increase by MCT” value ([4]; MCT rats) was “effect blunted”, the “Deaths/Total N” value ([4]; MCT rats, 15 mg/kg b.i.d. s.c.) was 0/8 and the “Deaths/Total N” value ([4]; MCT rats, 50 mg/kg b.i.d. s.c.) was 0/8. For the same compound, the “MCT induced increase in total lung weight” value ([4]; MCT rats, both doses) was “inhibited”, the RV hypertrophic response ([4]; MCT rats, both doses) was “significant inhibition” and the “RV/LVS ratio (Fulton Index), mean” value ([4]; MCT rats, high dose 50 mg/kg b.i.d.) was 0.47. For the same compound, the “right lobe dry weight / increase in structural components of the lung” value ([4]; MCT rats, lobe dried for 5 days) was “abrogated this remodeling”, the “RV/LVS ratio (Fulton Index), mean” value ([4]; MCT rats, low dose 15 mg/kg b.i.d.) was 0.41 and the “Deaths/Total N” value ([4]; Saline-injected rats, 50 mg/kg b.i.d. s.c.) was 0/5. The “RV pulse pressure, MCT effect compared to control rats” value ([4]; either dose (15 or 50 mg/kg b.i.d.)) was “MCT induced no significant effect compared to control rats”, the “RV systolic and mean pressures, MCT effect compared to control rats” value ([4]; either dose (15 or 50 mg/kg b.i.d.), ANOVA) was “MCT induced no significant effect compared to control rats” and the lethalities ([4]; groups receiving any dose) was “no lethalities”. For the same compound, the “RV pressures, MCT-vehicle compared to MCT-Compound 146, restricted analysis” value ([4]; one-tailed unpaired Student's t-test, P=0.046 low dose and 0.002 high dose) was “significant reduction”, the “Inh (% of Ctl) 0.01 μM” value ([5]; 0.01 μM compound, second part of Table 1) was 28.5 % of Ctl and the “Inh (% of Ctl) 0.05 μM” value ([5]; 0.05 μM compound, second part of Table 1) was 59.8 % of Ctl. The “Inh (% of Ctl) 0.1 μM” value ([5]; 0.1 μM compound, second part of Table 1 (Cpd 130-151)) was 70.4 % of Ctl.
